Experimental data: PubChem BioAssay (NCI)
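Cells were grown in 96-well plates and exposed to each compound for 48 hours at five concentrations; endpoints were interpolated linearly between bracketing concentrations, or set to the highest concentration if not reached. TGI marks complete inhibition of growth.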

Columns and labels:
Assay in all cases: inhibition of tumour cell growth, NCI panel, 48 h
HOP-92 NSCLC = system: HOP-92 NSCLC
DMS 273 small cell lung = system: DMS 273 small cell lung
RXF 393 renal = system: RXF 393 renal
SK-OV-3 ovarian = system: SK-OV-3 ovarian
CCRF-CEM leukemia = system: CCRF-CEM leukemia
NCI-H460 lung = system: NCI-H460 lung
786-0 renal = system: 786-0 renal
DLD-1 colon = system: DLD-1 colon
SF-295 CNS = system: SF-295 CNS
LOX IMVI melanoma = system: LOX IMVI melanoma
TK-10 renal = system: TK-10 renal
HL-60(TB) leukemia = system: HL-60(TB) leukemia
OVCAR-3 ovarian = system: OVCAR-3 ovarian
IGROV1 ovarian = system: IGROV1 ovarian
SF-268 CNS = system: SF-268 CNS
NCI-H23 lung = system: NCI-H23 lung
UO-31 renal = system: UO-31 renal
OVCAR-8 ovarian = system: OVCAR-8 ovarian
SNB-19 CNS = system: SNB-19 CNS
HCC-2998 colon = system: HCC-2998 colon
HT29 colon = system: HT29 colon
LXFL 529 NSCLC = system: LXFL 529 NSCLC
A549 NSCLC = system: A549 NSCLC
SR leukemia = system: SR leukemia
MOLT-4 leukemia = system: MOLT-4 leukemia
RPMI-8226 leukemia = system: RPMI-8226 leukemia
M19-MEL melanoma = system: M19-MEL melanoma
CAKI-1 renal = system: CAKI-1 renal
OVCAR-4 ovarian = system: OVCAR-4 ovarian
U251 CNS = system: U251 CNS
HCT-15 colon = system: HCT-15 colon
UACC-257 melanoma = system: UACC-257 melanoma
HOP-18 NSCLC = system: HOP-18 NSCLC
HCT-116 colon = system: HCT-116 colon
OVCAR-5 ovarian = system: OVCAR-5 ovarian
M14 melanoma = system: M14 melanoma
SW-620 colon = system: SW-620 colon
MALME-3M melanoma = system: MALME-3M melanoma
ACHN renal = system: ACHN renal
UACC-62 melanoma = system: UACC-62 melanoma
SF-539 CNS = system: SF-539 CNS
SK-MEL-5 melanoma = system: SK-MEL-5 melanoma
SN12C renal = system: SN12C renal
HOP-62 NSCLC = system: HOP-62 NSCLC
SK-MEL-28 melanoma = system: SK-MEL-28 melanoma
DMS 114 small cell lung = system: DMS 114 small cell lung
SNB-75 CNS = system: SNB-75 CNS
KM20L2 colon = system: KM20L2 colon
KM12 colon = system: KM12 colon
COLO 205 colon = system: COLO 205 colon
A498 renal = system: A498 renal
NCI-H226 lung = system: NCI-H226 lung
K-562 leukemia = system: K-562 leukemia
SNB-78 CNS = system: SNB-78 CNS

Measured: TGI

COC(=O)C1[C@@H](C(=O)OC)C(=O)O[C@H]1c1cc(OC)c(OC)c(OC)c1 (some centres undefined)
> 100 µM: HOP-92 NSCLC | DMS 273 small cell lung | RXF 393 renal | SK-OV-3 ovarian | CCRF-CEM leukemia | NCI-H460 lung | 786-0 renal | DLD-1 colon | SF-295 CNS | LOX IMVI melanoma | TK-10 renal | HL-60(TB) leukemia | OVCAR-3 ovarian | IGROV1 ovarian | SF-268 CNS | NCI-H23 lung | UO-31 renal | OVCAR-8 ovarian | SNB-19 CNS | HCC-2998 colon | HT29 colon | LXFL 529 NSCLC | A549 NSCLC | SR leukemia | MOLT-4 leukemia | RPMI-8226 leukemia | M19-MEL melanoma | CAKI-1 renal | OVCAR-4 ovarian | U251 CNS | HCT-15 colon | UACC-257 melanoma | HOP-18 NSCLC | HCT-116 colon | OVCAR-5 ovarian | M14 melanoma | SW-620 colon | MALME-3M melanoma | ACHN renal | UACC-62 melanoma | SF-539 CNS | SK-MEL-5 melanoma | SN12C renal | HOP-62 NSCLC | SK-MEL-28 melanoma | DMS 114 small cell lung | SNB-75 CNS | KM20L2 colon | KM12 colon | COLO 205 colon | A498 renal | NCI-H226 lung | K-562 leukemia | SNB-78 CNS
